“Also recorded” adds a separate entry of the source. Where two headings read alike, the source gives them in different places.
Tests used:
LUHMES cells [1] = assay: NeuriTox test: neurite area and viability, 24 h; type: cell-based, human
Procedure: (§1) The NeuriTox test was performed as previously described (Delp et al. [2018b]; Krug et al. [2013a]; Stiegler et al. [2011]). Briefly, cells differentiated for 48 h were re-seeded into 96-well plates at a density of 100,000 cells/cm^2 in DM without cAMP and GDNF, and treated 1 h after seeding for 24 h. Subsequently, multiple endpoints were determined, e.g., neurite outgrowth (i.e., NeuriTox test), resazurin reduction, intracellular ATP content, gene expression levels from TempO-Seq analysis, and proteasomal activity. For the 120 h exposure scenario, LUHMES cells were differentiated for another 3 days after reseeding before they were treated on day 5 (d5) and d7 by a half medium exchange. Endpoints were determined on d10 of differentiation.
(§2) Image acquisition and analysis was performed as described previously (Krug et al. [2013a]; Schildknecht et al. [2013]; Stiegler et al. [2011]). In brief, cells were live-stained with 1 µg/ml Hoechst H-33342 and 1 µM calcein-AM and image acquisition was done by an automated high content imager (Cellomics, Waltham, MA, USA). Cell viability was determined as ratio of live cells (cell bodies being Calcein- and Hoechst-positive) relative to the total amount of cells (Hoechst-positive cell bodies). Neurite area was calculated by subtracting the somatic area (Hoechst-positive area plus surrounding) from the calcein-positive area.

LUHMES cells [2] = assay: LUHMES 120 h exposure scenario, neurite effects; type: cell-based, human
Procedure: as §1, §2

SH-SY5Y cells = type: cell-based, human; settings: up to 10 µM; for Neurite degeneration: 24 h exposure, without affecting viability; for Neurite degeneration (in words) / Reduction in viability: 120 h exposure
Procedure: The cells are able to form neurites and display several dopaminergic characteristics. […] Differentiation was initiated 24 h later (on day 0, d0) by exchange to 100 µl/well differentiation medium (DMEM:F12, supplemented with 1 µM all-trans retinoic acid (RA), 1 × N2 supplement, 2 mM L-glutamine, 100 µg/ml streptomycin, and 100 U/ml penicillin). All media and supplements were obtained from Gibco (ThermoFisher) except from RA (Sigma).
On d3, 100 µl of fresh differentiation medium were added to the wells. For the 120 h exposure, this medium contained twice the final treatment concentration. On d6, 100 µl from each well were removed, and the procedure was repeated and the cells were analyzed on d8. For the 24 h exposure, cells received an addition of 100 µl pure differentiation medium on d3 and were treated with compounds as described above on d6 for 24 h before analysis. […] The cells were incubated with the stain mixture for 20 min at 37 °C, 5% CO2. After incubation, 130 µL of differentiation medium were added to all the wells to stop further staining of the cells. Images were obtained using ImageXpress® Micro (Molecular Devices). […] The mean neurite length was calculated using the Neurite Outgrowth plug-in in the MetaXpress® Software. Outgrowths were defined as cytoplasmic prolongations with a maximum width of 2 µm (3 pixels). The minimum outgrowth size needed to be logged as significant was defined as 15 µm (23 pixels).

LUHMES cells [3] = assay: Mitochondrial respiration of intact LUHMES cells (Seahorse OCR); type: cell-based, human; settings: d3 LUHMES, acute treatment, highest non-cytotoxic concentration (cII inhibitors 100 µM)
Procedure: Respiration of intact LUHMES cells was performed as described earlier (Delp et al. [2018a], [2019]). Briefly, 48 h differentiated cells were re-seeded into Agilent Seahorse XFe24-well plates in DM without cAMP and GDNF at a density of 100,000 cells/cm^2 and cultured for 24 h before the assay was initiated. Inhibition of respiration was calculated as the difference between baseline measurements (i.e., after equilibration, last measurement before treatment) and the first measurement after treatment with the test compound.

cIII = biological target: T1, cIII (Homo sapiens, UniProt P00156); assay: Respiratory chain complex activity in permeabilized LUHMES cells: cIII; type: cell-based
T1 construct: endogenous in cells; host or cells: LUHMES cells, digitonin-permeabilized
Procedure: (§3) To investigate individual respiratory chain complexes, a method developed earlier and described extensively was used (Delp et al. [2019]). In brief, LUHMES cells were seeded at a density of 205,000 cells/cm^2 in PM into Agilent Seahorse XFe24-well plates. […] To reduce data variability, internal normalization of the OCR of each well was done relative to its value after equilibration.

HepG2 cells = tested on: HepG2 cells; parameters: method as in van der Stel et al. 2020; settings: ref van der Stel et al. 2020; cited from earlier work
cII [4] = biological target: T2, cII (Homo sapiens, UniProt O14521+P21912+Q99643); assay: Respiratory chain complex activity in permeabilized LUHMES cells: cII; type: cell-based; settings: mepronil at 100 µM
T2 construct: endogenous in cells; host or cells: LUHMES cells, digitonin-permeabilized
T2 sequence (P21912 29-280): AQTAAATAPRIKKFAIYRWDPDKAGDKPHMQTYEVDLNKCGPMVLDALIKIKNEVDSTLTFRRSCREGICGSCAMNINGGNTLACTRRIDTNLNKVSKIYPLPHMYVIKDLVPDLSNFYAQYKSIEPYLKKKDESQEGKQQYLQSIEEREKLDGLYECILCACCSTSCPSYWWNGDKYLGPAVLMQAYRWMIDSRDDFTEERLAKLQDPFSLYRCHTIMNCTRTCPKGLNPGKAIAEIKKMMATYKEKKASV
T2 sequence (Q99643 30-169): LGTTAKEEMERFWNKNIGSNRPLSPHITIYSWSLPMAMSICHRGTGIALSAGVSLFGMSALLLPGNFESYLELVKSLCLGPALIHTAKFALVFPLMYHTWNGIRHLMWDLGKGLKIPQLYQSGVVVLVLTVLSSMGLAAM
T2 sequence (O14521 57-159): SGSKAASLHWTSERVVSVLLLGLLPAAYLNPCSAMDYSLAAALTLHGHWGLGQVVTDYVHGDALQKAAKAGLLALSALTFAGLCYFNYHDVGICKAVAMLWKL
T2 sequence (P31040 43-664 partner): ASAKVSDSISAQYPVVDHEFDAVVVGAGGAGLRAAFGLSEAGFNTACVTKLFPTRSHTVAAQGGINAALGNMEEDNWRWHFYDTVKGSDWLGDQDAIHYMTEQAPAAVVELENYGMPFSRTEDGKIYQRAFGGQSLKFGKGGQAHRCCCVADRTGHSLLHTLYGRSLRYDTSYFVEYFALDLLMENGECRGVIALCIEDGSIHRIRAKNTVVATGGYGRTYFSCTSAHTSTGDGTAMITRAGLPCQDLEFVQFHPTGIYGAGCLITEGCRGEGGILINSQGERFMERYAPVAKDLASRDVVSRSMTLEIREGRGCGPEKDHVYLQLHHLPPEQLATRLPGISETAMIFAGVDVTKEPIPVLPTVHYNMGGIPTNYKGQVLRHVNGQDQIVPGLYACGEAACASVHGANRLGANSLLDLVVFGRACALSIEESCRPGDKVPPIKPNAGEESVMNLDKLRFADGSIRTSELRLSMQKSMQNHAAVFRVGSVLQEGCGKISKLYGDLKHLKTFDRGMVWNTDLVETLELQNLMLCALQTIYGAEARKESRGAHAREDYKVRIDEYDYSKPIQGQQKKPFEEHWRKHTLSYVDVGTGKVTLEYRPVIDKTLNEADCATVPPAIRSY
Procedure: as §3

cI [5] = biological target: T3, cI (Homo sapiens, UniProt O75251+O75306+P03886); type: cell-based; settings: permeabilized LUHMES; capsaicin 50 µM, mepronil 100 µM
T3 construct: endogenous in cells; host or cells: LUHMES cells, digitonin-permeabilized
T3 sequence (O75306 34-463): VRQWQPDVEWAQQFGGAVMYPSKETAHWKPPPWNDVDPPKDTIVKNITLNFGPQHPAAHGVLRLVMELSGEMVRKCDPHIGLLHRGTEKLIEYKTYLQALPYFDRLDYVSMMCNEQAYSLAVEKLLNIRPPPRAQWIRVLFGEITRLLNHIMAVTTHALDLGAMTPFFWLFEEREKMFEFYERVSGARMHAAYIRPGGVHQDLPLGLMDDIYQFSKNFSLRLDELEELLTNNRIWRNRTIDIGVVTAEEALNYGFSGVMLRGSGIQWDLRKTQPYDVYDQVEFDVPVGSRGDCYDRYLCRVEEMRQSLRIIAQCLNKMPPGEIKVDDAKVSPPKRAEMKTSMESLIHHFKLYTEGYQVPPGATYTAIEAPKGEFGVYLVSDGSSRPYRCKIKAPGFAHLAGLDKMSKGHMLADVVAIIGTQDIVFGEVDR
T3 sequence (P03886 whole entry): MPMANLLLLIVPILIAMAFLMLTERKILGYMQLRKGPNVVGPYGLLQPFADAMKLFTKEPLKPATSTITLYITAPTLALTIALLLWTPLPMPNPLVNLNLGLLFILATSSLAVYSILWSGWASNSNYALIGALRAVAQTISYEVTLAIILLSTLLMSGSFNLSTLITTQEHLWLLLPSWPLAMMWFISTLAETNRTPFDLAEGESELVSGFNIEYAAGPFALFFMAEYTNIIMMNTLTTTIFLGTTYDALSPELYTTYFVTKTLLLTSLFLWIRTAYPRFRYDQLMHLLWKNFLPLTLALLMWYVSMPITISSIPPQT
T3 sequence (O75251 39-213): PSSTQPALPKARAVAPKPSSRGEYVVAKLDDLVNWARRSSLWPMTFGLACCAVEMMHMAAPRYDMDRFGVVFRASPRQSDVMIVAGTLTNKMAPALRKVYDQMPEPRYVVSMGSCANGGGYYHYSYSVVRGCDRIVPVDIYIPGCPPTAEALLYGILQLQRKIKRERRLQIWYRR
Procedure: as §3

cII [6] = tested on: cII; parameters: method as in van der Stel et al. 2020; settings: read-out: Concentration at which 50% inhibition was observed; HepG2 cells ref van der Stel et al. 2020; cited from earlier work
cI [7] = tested on: cI; parameters: method as in van der Stel et al. 2020; settings: liver and kidney cells ref van der Stel et al. 2020; read-out: IC50 for inhibition of cI; cited from earlier work
[8] = Homo sapiens, NeuriTox exposure scheme, 24 h, read-out: LUHMES 24 h EC25 NA (neurite area) (converted)
[9] = Homo sapiens, NeuriTox exposure scheme, 24 h, read-out: LUHMES 24 h EC25 V (viability) (converted)
[10] = Homo sapiens, NeuriTox test, neurite outgrowth impairment, LUHMES 24 h, read-out: EC25 KE4 (AO) Neurite toxicity (converted)

| Structure (SMILES) | EC25 (LUHMES cells [1]; [8]) | EC25 (LUHMES cells [1]; [9]) | EC25 (LUHMES cells [1]; [10]) | Increase in sensitivity of neurite EC25, 120 h versus 24 h exposure (LUHMES cells [2]) | Neurite degeneration (SH-SY5Y cells) | Neurite degeneration (in words) (SH-SY5Y cells) | Reduction in viability (SH-SY5Y cells) | Inhibition of total mitochondrial respiration of intact cells (LUHMES cells [3]) | Offset between neurite endpoint (LUHMES/SH-SY5Y) and U2OS viability (LUHMES cells [1]) | Inhibition of cII activity (in words) (cII [4]) | also measured |
| --- | --- | --- | --- | --- | --- | --- | --- | --- | --- | --- | --- |
| CCOCCc1ccc(OCCN=c2[nH]cnc(CC)c2Cl)c(C)c1C [Pyrimidifen] | 15.8 µM | 39.8 µM | 15.8 µM | 9.8 fold |  |  |  |  |  |  |  |
| Cc1ccc(-c2c(Cl)nc(C#N)n2S(=O)(=O)N(C)C)cc1 [Cyazofamid] | 50.1 µM | > 50.1 µM | 50.1 µM | five-to-eightfold | > 25% | degeneration of neurites; also recorded: increased neurite degeneration | > 25% | inactive |  |  | Precipitation in the assay (LUHMES cells [1]; LUHMES NeuriTox concentration range): precipitate in the active concentration range; Inhibition of cIII activity (in words) (cIII; cIII electron donor): not active at all; Uncoupling action (cIII; neuronal mitochondria, 50 µM): uncoupling action; Mode of action found in HepG2 cells (HepG2 cells): uncoupler |
| C=C(C)[C@H]1Cc2c(ccc3c2O[C@@H]2COc4cc(OC)c(OC)cc4[C@@H]2C3=O)O1 [Rotenone] |  |  |  |  | > 25% | degeneration of neurites | > 25% |  | > 100 fold |  | EC25 (LUHMES cells [1]; Homo sapiens, 24 h, read-out: EC25 KE4 (AO) Neurite toxicity): 0.0794 µM; EC25 (LUHMES cells [1]; Homo sapiens, 24 h, read-out: LUHMES 24 h EC25 NA (neurite area)): 0.0794 µM; EC25 (LUHMES cells [1]; Homo sapiens, 24 h, read-out: LUHMES 24 h EC25 V (viability)): > 10 µM |
| CC1=C(C(=O)Nc2ccccc2)SCCO1 [Carboxin] | 79.4 µM | > 100 µM | 79.4 µM |  |  |  |  |  |  | strong inhibition of cII |  |
| CCCCCC[C@H]1C(=O)O[C@H](C)[C@H](NC(=O)c2cccc(NC=O)c2O)C(=O)O[C@@H](C)[C@@H]1OC(=O)CC(C)C [Antimycin A] | 15.8 µM | > 50.1 µM | 15.8 µM |  | > 25% | degeneration of neurites | > 25% | strong inhibitory effects | potentially strong neurite-specific toxicant |  |  |
| Cc1nc(C(F)(F)F)c(C(=O)Nc2c(Br)cc(OC(F)(F)F)cc2Br)s1 [Thifluzamide] | 20 µM | 63.1 µM | 20 µM | five-to-eightfold |  |  |  |  |  | strong inhibition of cII |  |
| COc1cc2c(cc1OC)[C@@H]1C(=O)c3ccc4c(c3O[C@@H]1CO2)C=CC(C)(C)O4 [Deguelin] | 3.98 µM | 50.1 µM | 3.98 µM | five-to-eightfold | no effects | degeneration of neurites; also recorded: increased neurite degeneration | > 25% |  | > tenfold offset |  | EC50 (LUHMES cells [1]; Homo sapiens, read-out: EC10V (10% reduction of viability), NeuriTox assay, LUHMES 24 h): 13 µM |
| Cc1ccccc1C(=O)Nc1cccc(OC(C)C)c1 [Mepronil] | 100 µM | > 100 µM | > 100 µM |  |  |  |  |  |  | significant, but weak inhibitor | Inhibition of cI activity (in words) (cI [5]): weakly affected cI; IC50 (cII [6]): > 100 µM |
| COC(=O)N(OC)c1ccccc1COc1ccn(-c2ccc(Cl)cc2)n1 [Pyraclostrobin] | 25.1 µM | > 50.1 µM | 25.1 µM | five-to-eightfold |  |  |  |  |  |  |  |
| COc1cc(CNC(=O)CCCC/C=C/C(C)C)ccc1O [Capsaicin] | > 50.1 µM | > 50.1 µM |  |  |  |  |  | weak response |  |  | Inhibition of cI activity (in words) (cI [5]): no significant response; IC50 (cI [7]): > 200 µM |
